Starred links: 1 amine or outer side, 2 acyl side, 3 side chain; linkers in the order of their positions; H or OH if unused. Positions of bridges follow the written chain, without caps; N, C: chain ends. Non-standard residues stand in square brackets, D forms with d. Residues, ends and D or L forms follow the SMILES beside them. X1 = CC1(C)C(/C=C/C=C/C=C/C=C2/N(CCC(=O)[*:2])c3ccc4ccccc4c3C2(C)C)=[N+](CCC(=O)[*:1])c2ccc3ccccc3c21
How the values were obtained:
SSTR2 = target: T1, SSTR2 (Rattus norvegicus, UniProt P30680); experiment: Receptor binding affinity: competition with 111In-DTPA-octreotide in AR42J tumor cell membranes; settings: 37° C., 2 h, radioligand 111In-DTPA-octreotide, read-out: IC50 relative to 111In-DTPA-octreotide
T1 construct: A preparation of cell membranes was made from AR42J cells by brief sonication; endogenous in cells; host or cells: AR42J rat pancreatic carcinoma cells (membrane preparation)
T1 sequence (P30680 whole entry): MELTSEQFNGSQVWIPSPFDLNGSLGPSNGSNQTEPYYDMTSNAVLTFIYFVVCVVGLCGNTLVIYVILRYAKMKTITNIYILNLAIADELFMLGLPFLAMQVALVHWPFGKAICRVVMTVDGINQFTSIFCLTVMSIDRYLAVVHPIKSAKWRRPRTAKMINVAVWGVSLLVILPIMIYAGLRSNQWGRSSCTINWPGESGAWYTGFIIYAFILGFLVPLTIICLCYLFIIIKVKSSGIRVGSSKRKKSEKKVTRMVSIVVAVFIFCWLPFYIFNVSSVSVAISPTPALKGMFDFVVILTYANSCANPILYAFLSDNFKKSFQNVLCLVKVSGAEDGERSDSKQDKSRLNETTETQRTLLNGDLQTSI
Method: The binding affinity of somatostatin analogues was carried out using ^111In-DTPA-octreotide in AR42J tumor cells according to previously reported methods with minor modifications (Lewis, J. S., Lewis, M. R., Srinivasan, A., Schmidt, M. A., Wang, J., and Anderson, C. J. (1999) Comparison of Four ^64Cu-labeled Somatostatin Analogs in vitro and in a Tumor-bearing Rat Model: Evaluation of New Derivatives for PET Imaging and Targeted Radiotherapy. J. Med. Chem. 42, 1.341-1347). The AR42J rat pancreatic carcinoma cell line is known to express SSTR2 both in vitro and in vivo ((Rosewicz, S., Vogt, D., Harth, N., Grund, C., Franke, W. W., Ruppert, S., Schweitzer, E., Riecken, E.-O., and Wiedenman, B. (1992) An Amphicrine Pancreatic Cell Line: AR42J Cells Combine Exocrine and Neuroendocrine Properties. Eur. J. Cell Biol. 59, 80-91; Christophe, J. (1994) Pancreatic Tumoral Cell Line AR42J: An Amphicrine Model. Am. J.
Physiol. (Gastrointest. Liver Physiol.) 266 (29), G963-G971). […] The filters containing membrane-bound radioactivity were removed from the assay plate and counted using a Beckman 8000 automated well-typed counter (Fullerton, Calif.). Specific binding was calculated by subtracting the non-specifically bound radioactivity from that of total binding. The best-fit IC50 values were calculated using PRISM™ (Graphpad, San Diego, Calif.). […]

[1] = test system: CA20948 tumor-bearing mice; experiment: Contrast agent-mediated optical imaging / biodistribution in tumor (CA20948) bearing mice; type: in vivo; settings: 0.5 mL of a 1 μM solution via lateral tail vein
Description: The instrument consists of an excitation source and a charge-coupled device (CCD) camera for signal detection. To image compounds such as compound 18 that absorb and emit radiation in the near infrared region, a nominal 780 nm collimated solid state laser source was used to excite the compounds. The nominal 50 mW of incident power from the laser was reduced to about 20 mW at the output of the fiber optic bundle. A CCD camera (12 bit, 1024×1024 pixel, back illuminated) was equipped with the appropriate interference filter to capture the emitted photons at 830 nm. Biodistribution of the dyes and receptor-specific optical contrast agent in mice were performed by injecting 0.5 mL of a 1 μM solution of the compound via the lateral tail vein of tumor (CA20948) bearing mice. […] In contrast, injection of somatostatin-avid optical probes in CA20948 tumor-bearing mice preferentially accumulates in the tumor.

IC50 (SSTR2)	time to clearance from the blood postinjection [1]	biodistribution: site of accumulation ([1]; optical imaging 780 nm excitation / 830 nm emission)	Structure (SMILES)
8.17 nM	–	–	C[C@@H](O)[C@@H]1NC(=O)[C@@H]2CSSC[C@H](NC(=O)[C@@H](Cc3ccccc3)NC(=O)CC[N+]3=C(/C=C/C=C/C=C/C=C4/N(CCC(=O)NCCCC[C@@H](C(N)=O)NC1=O)c1ccc5ccccc5c1C4(C)C)C(C)(C)c1c3ccc3ccccc13)C(=O)N[C@@H](Cc1ccc(O)cc1)C(=O)N[C@H](Cc1c[nH]c3ccccc13)C(=O)N[C@@H](CCCCN)C(=O)N[C@@H]([C@@H](C)O)C(=O)N2 [Compound 18] ([dF]CY[dW]KTCTK-NH2; disulfide 2-7; linker N-9 via X1)
–	≤ 1 h	accumulates in the liver	CC1(C)C(/C=C/C=C/C=C/C=C2/N(CCC(=O)O)c3ccc4ccccc4c3C2(C)C)=[N+](CCC(=O)O)c2ccc3ccccc3c21 [Compound 2, Bispropylcarboxymethylindocyanine Dye]
